Assay [1] has as its target T1, EGFR intracellular domain (EGFR kinase) (Homo sapiens, UniProt P00533).
T1 construct: made in house; host or cells: SF-21 insect cells infected with recombinant baculovirus BAC-EGFR
As to the kind of experiment: Determination of EGFR kinase inhibitory activity. It is filed as biochemical. The conditions noted are these: compound at 1.0 μM, poly-Glu:Tyr (4:1) substrate, [γ-32P]ATP; for inhibition at 1 µM: read-out: inhibitory rate (%) at 1.0 μM. The procedure:
Human EGFR gene was cloned by RT-PCR using total RNA prepared from A431 cells as a template. The primer used for RT-PCR was prepared in consideration of the information of nucleotide sequence (Genbank Accession No. X00588) of EGFR gene by adding a nucleotide sequence encoding DYKDDDD peptide and a restriction enzyme recognition sequence to a nucleotide sequence (corresponding to 2191-3819 of Genbank Accession No. X00588 as a base, 669-1210 amino acids of Genbank Accession No. NP_005219 as a protein) encoding the EGFR intracellular domain region such that the protein contains an N-terminal DYKDDDD peptide tag. The primer nucleotide sequence is shown below.
(§1) SF-21 cells were sown at 1×10^6 cells/mL in Sf-900II SFM medium (1 L, Invitrogen) containing 10% fetal bovine serum (trace), 50 mg/L gentamicin (Invitrogen) and 0.1% Pluronic F-68 (Invitrogen), and shaking culture was performed using a 2 L volume Erlenmeyer flask at 27° C., 100 rpm. After culturing for 24 hrs, recombinant baculovirus BAC-EGFR (13.4 mL) was added, and the mixture was further cultured for 3 days. The culture medium was centrifuged at 2,000 rpm for 5 min to give virus-infected cells. The infected cells were washed with a phosphate buffered saline (Invitrogen), centrifuged under the same conditions, and the cells were preserved at −80° C. The cryopreserved cells were thawed in ice, suspended in buffer A (50 mM Tris buffer (30 mL, pH 7.4) containing 20% glycerol, 0.15 M NaCl) supplemented with Complete Protease Inhibitor (Boehringer), and ruptured 3 times with a Polytron homogenizer (Kinematica) at 20,000 rpm for 30 sec. The ruptured solution was clarified by centrifugation at 40,000 rpm for 30 min, and filtered with a 0.45 μm filter. The filtrate was passed through a column packed with Anti-FLAG M2 Affinity Gel (4 mL, Sigma-Aldrich) at a flow rate of about 0.5 mL/min. The column was washed with buffer A, and eluted with buffer A containing 100 μg/mL of FLAG peptide. The eluent was concentrated with Vivaspin 20 (Vivascience) having a molecular weight cut off of 30K. The concentrate was purified by gel filtration using Hi Load 16/60 Superdex 200 pg (GE Healthcare Bioscience) equilibrated with buffer A. The fractions containing EGFR intracellular domain were collected and cryopreserved at −80° C.
(§2) EGFR kinase reaction was performed using a 96 well plate. As a buffer for kinase reaction, a buffer having a composition of 50 mM Tris-HCl (pH 7.5), 5 mM MnCl2, 2 mM dithiothreitol, 0.01% Tween-20 was used. The compound of the present invention was dissolved in dimethyl sulfoxide (DMSO), and diluted with the kinase reaction buffer so that DMSO concentration would be 0.1% during kinase reaction. This compound solution (10 μL) was mixed with a kinase reaction buffer (20 μL) containing EGFR intracellular domain (0.625 μg/mL) obtained in Experimental Example 2B and polypeptide substrate poly-Glu:Tyr (4:1) (Sigma Ltd., 12.5 μg/mL), and the mixture was stood at room temperature for 5 min. Then, a kinase reaction buffer (20 μL) containing 125 μM ATP and 45 μCi/mL [γ-^32P]ATP was added, and the kinase reaction was initiated with 50 μL of the final reaction mixture. A kinase reaction was performed at room temperature for 10 min, and the kinase reaction was quenched by addition of 20% TCA solution (50 μL). The mixture after completion of the reaction was stood at room temperature for 30 min, and acid insoluble fractions in the mixture after completion of the reaction were collected in a 96 well GF/C filter plate (PerkinElmer) using a cell harvester (PerkinElmer). Thereafter, the filter containing the acid insoluble fractions was washed with 3% phosphoric acid solution. After washing, the filter plate was dried at 45° C. for 60 min, and 25 μL of MicroScinti 0 (PerkinElmer) was added. The radioactivity was measured using TopCount (PerkinElmer).
EGFR kinase inhibitory rate (%) of the test compound was calculated by the following formula: […]

For assay [2], the system named is human breast cancer cell BT-474. Briefly: Inhibitory action on breast cancer cell BT-474 proliferation in vitro. The class given is cell-based. The conditions noted are these: 120 h, BT-474 cells, cultured for 5 days with compound, SRB protein content. The procedure:
A suspension of human breast cancer cell BT-474 (100 μl (6,000 cells)) were plated in a 96-well microplate and cultured in an incubator (37° C., 5% carbon dioxide). On the following day, 100 μl of a solution of each test compound previously diluted serially in 2-fold, was added, and the cells were cultured for 5 days. After the culture medium containing the test compound was removed, the cells were washed and fixed with 50% trichloroacetic acid, after which a 0.4% (w/v) SRB dye solution (dissolved in 1% acetic acid) was added to stain as well as fix the cell protein (Skehan et al., Journal of the National Cancer Institute, Vol. 82, pp. 1107-1112, 1990). After washing with a 1% acetic acid solution, 100 μl of extract solution (10 mM, Tris buffer) was added to extract the dye and the absorbance was measured at a wavelength of 550 nm to quantify the amount of cells as protein content. Taking as 100% the protein content for the control group, which received no test compound solution, the ratio of the residual protein content for each treatment group was determined, and the compound concentration required to achieve 50% suppression of the residual cell content relative to the control (IC50 value) was calculated.

Assay [3] has as its target T2, HER2 intracellular domain (HER2 kinase) (Homo sapiens, UniProt P04626).
T2 construct: made in house; host or cells: SF-21 insect cells infected with recombinant baculovirus BAC-HER2
Briefly: Determination of HER2 kinase inhibitory activity. The conditions noted are these: compound at 1.0 μM, poly-Glu:Tyr (4:1) substrate, [γ-32P]ATP, read-out: inhibitory rate (%) at 1.0 μM. It is filed as biochemical. The procedure: Human HER2 gene was cloned by RT-PCR using total RNA prepared from MCF7 cells as a template. The primer used for RT-PCR was prepared in consideration of the information of nucleotide sequence (Genbank Accession No. M11730) of HER2 gene by adding a nucleotide sequence encoding DYKDDDD peptide and a restriction enzyme recognition sequence to a nucleotide sequence (corresponding to 2176-3918 of Genbank Accession No. M11730 as a base, 676-1255 amino acids of Genbank Accession No. NP_004439 as a protein) encoding the HER2 intracellular domain region such that the protein contains an N-terminal DYKDDDD peptide tag. The primer nucleotide sequence is shown below.
as §1, with “hr,” for “hrs,”, “BAC-HER2” for “BAC-EGFR”, “HER2” for “EGFR”
as §2, with “HER2 kinase reaction” for “EGFR kinase reaction”, “buffer […] containing HER2” for “buffer (20 μL) containing EGFR”, “mL) containing HER2 intracellular domain” for “μL) containing EGFR intracellular domain”, “Experimental Example 1B and polypeptide” for “Experimental Example 2B and polypeptide”, “TopCount (PerkinElmer). HER2 kinase inhibitory rate (%) of the test compound was calculated by the following formula: […]” for “TopCount (PerkinElmer).”

Where only a bound is given, the exact number is not on record here.

As a reminder, the IC50 is the concentration that gives 50% inhibition.

T1 sequence (P00533 669-1210): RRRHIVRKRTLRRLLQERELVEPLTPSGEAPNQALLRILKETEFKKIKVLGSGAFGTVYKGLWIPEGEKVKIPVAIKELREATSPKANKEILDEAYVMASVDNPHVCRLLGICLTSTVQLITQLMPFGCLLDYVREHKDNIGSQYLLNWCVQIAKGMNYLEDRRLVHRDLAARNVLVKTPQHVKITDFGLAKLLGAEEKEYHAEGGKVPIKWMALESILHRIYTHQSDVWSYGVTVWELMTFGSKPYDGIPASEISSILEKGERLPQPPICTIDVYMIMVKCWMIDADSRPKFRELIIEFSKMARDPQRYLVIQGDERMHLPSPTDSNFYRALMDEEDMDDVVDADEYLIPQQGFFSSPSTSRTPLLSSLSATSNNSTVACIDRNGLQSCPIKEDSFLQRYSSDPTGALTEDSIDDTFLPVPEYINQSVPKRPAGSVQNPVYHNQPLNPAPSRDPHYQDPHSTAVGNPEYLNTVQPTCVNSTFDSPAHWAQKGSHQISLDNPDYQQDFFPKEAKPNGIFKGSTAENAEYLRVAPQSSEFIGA
T2 sequence (P04626 676-1255): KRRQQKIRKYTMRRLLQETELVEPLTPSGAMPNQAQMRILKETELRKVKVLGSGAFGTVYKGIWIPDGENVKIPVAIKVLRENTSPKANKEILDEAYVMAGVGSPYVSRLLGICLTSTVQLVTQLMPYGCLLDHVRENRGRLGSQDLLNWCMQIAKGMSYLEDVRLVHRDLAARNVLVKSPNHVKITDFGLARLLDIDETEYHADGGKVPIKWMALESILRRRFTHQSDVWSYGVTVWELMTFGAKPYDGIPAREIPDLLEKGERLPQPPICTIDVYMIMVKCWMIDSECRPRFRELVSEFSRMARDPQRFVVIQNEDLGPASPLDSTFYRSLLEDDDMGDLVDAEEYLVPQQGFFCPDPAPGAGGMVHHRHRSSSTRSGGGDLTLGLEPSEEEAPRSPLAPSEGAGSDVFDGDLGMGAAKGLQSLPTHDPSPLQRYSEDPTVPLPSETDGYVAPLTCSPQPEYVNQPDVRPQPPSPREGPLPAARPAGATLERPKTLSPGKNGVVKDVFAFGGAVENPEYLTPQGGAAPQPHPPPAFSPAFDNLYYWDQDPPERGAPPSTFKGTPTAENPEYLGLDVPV

Regarding `CN1C(=O)Cc2c(Oc3ccc(Nc4ncnc5ccn(CCO)c45)cc3Cl)cccc21` [Example 8, 4-(2-chloro-4-{[5-(2-hydroxyethyl)-5H-pyrrolo[3,2-d]pyrimidin-4-yl]amino}phenoxy)-1-methyl-1,3-dihydro-2H-indol-2-one], in assay [1], the inhibition at 1 µM was 100%. Moreover, the IC50 in assay [2] is < 100 nM.

`CC(=O)NCCn1ccc2ncnc(Nc3ccc(Oc4cccc5sccc45)c(Cl)c3)c21` [Example 99, N-[2-(4-{[4-(1-benzothiophen-4-yloxy)-3-chlorophenyl]amino}-5H-pyrrolo[3,2-d]pyrimidin-5-yl)ethyl]acetamide]: the inhibition at 1 µM in assay [1] is 98%.

`OCCOCCn1ccc2ncnc(Nc3ccc(Oc4cccc5[nH]ccc45)c(Cl)c3)c21` [Example 16, 2-[2-(4-{[3-chloro-4-(1H-indol-4-yloxy)phenyl]amino}-5H-pyrrolo[3,2-d]pyrimidin-5-yl)ethoxy]ethanol]: the inhibition at 1 µM amounted to 100% in assay [3] and 99% in assay [1].

For `CS(=O)(=O)CC(=O)NCCn1ccc2ncnc(Nc3ccc(Oc4ccc5ccsc5c4)c(Cl)c3)c21` [Example 60, N-[2-(4-{[4-(1-benzothiophen-6-yloxy)-3-chlorophenyl]amino}-5H-pyrrolo[3,2-d]pyrimidin-5-yl)ethyl]-2-(methylsulfonyl)acetamide], the inhibition at 1 µM in assay [1] worked out at 99%.

For the molecule `CS(=O)(=O)CC(=O)NCCn1ccc2ncnc(Nc3ccc(Oc4cccc5c4CC(=O)N5)c(Cl)c3)c21` [Example 6, N-{2-[4-({3-chloro-4-[(2-oxo-2,3-dihydro-1H-indol-4-yl)oxy]phenyl}amino)-5H-pyrrolo[3,2-d]pyrimidin-5-yl]ethyl}-2-(methylsulfonyl)acetamide], the inhibition at 1 µM in assay [1] stood at 100%. In assay [2], the IC50 is < 100 nM.

In the case of `CC(=O)NCCn1ccc2ncnc(Nc3ccc(Oc4cccc5sccc45)c(Cl)c3)c21` [Example 119, N-[2-(4-{[4-(1-benzothiophen-4-yloxy)-3-chlorophenyl]amino}-5H-pyrrolo[3,2-d]pyrimidin-5-yl)ethyl]acetamide methanesulfonate], the “inhibitory rate (%) at 1.0 μM” value in assay [1] (methanesulfonate, 1 µM) came out at 99%.

For the molecule `Cn1ccc2ncnc(Nc3ccc(Oc4cccc5[nH]ccc45)c(Cl)c3)c21` [Example 22, N-[3-chloro-4-(1H-indol-4-yloxy)phenyl]-5-methyl-5H-pyrrolo[3,2-d]pyrimidin-4-amine], in assay [1], the inhibition at 1 µM stood at 98%. Further, the IC50 in assay [2] is < 100 nM.

Take `CC(C)(CO)C(=O)NCCn1ccc2ncnc(Nc3ccc(Oc4ccc5ccsc5c4)c(Cl)c3)c21` [Example 53, N-[2-(4-{[4-(1-benzothiophen-6-yloxy)-3-chlorophenyl]amino}-5H-pyrrolo[3,2-d]pyrimidin-5-yl)ethyl]-3-hydroxy-2,2-dimethylpropanamide]: the inhibition at 1 µM in assay [1] was determined as 98%.

These data come from patent publication US20100004238A1, “FUSED HETEROCYCLIC COMPOUND” (TAKEDA PHARMACEUTICAL COMPANY LIMITED, priority 2006, published 2010).
